Values joined by “and” are separate entries in the source; they are usually repeats but may differ in a detail not shown here. Equal entries are not always repeated. Where two headings read alike, the source gives them in different places.
Experiments:
SARS2 = type: cell-based, SARS-CoV-2; conditions: for Percentage Infection Relative to Appropriate DMSO Control with Avg Background Subtraction: Greiner Celigo plates; for Percentage Inhibition Average 1 μM / Screening data (Relative infection to DMSO controls) Average 1 μM: SARS2, 1 μM; for Screening data (Relative infection to DMSO controls) Average 1 μM / Screening data (Relative infection to DMSO controls) Average 5 μM / Screening data (Relative infection to DMSO controls) Average 10 μM / Screening data (Relative infection to DMSO controls) Average 25 μM / Screening data (Relative infection to DMSO controls) Average 50 μM / Average (relative infection to DMSO over the 5 tested concentrations): 100=DMSO control; for Percentage Inhibition Average 5 μM / Screening data (Relative infection to DMSO controls) Average 5 μM: SARS2, 5 μM; for Percentage Inhibition Average 10 μM / Screening data (Relative infection to DMSO controls) Average 10 μM: SARS2, 10 μM; for Percentage Inhibition Average 25 μM / Screening data (Relative infection to DMSO controls) Average 25 μM: SARS2, 25 μM; for Percentage Inhibition Average 50 μM / Screening data (Relative infection to DMSO controls) Average 50 μM: SARS2, 50 μM; for Average (relative infection to DMSO over the 5 tested concentrations): SARS2, average over 1 to 50 uM; for Infection Data, Average, Mean: average of Exp 1-3 (SMW475, SMW477, SMW478)
cells (nuclei count) = conditions: for Relative cell count to DMSO controls, Average 1 μM / Relative cell count to DMSO controls, Average 5 μM / Relative cell count to DMSO controls, Average 10 μM / Relative cell count to DMSO controls, Average 25 μM / Relative cell count to DMSO controls, Average 50 μM: toxicity data, 100=DMSO control; for Toxicity Data, Average, Mean: average of Exp 1-3 (SMW475, SMW477, SMW478); for Relative cell count to DMSO controls, Average (for correlation analysis): average value over the 5 tested concentrations (1 to 50 uM)
WDR61 = WDR61 (Homo sapiens, UniProt Q9GZS3); assay: Surface Plasmon Resonance with pure WDR61 protein
IAV NS1 mRNA = type: cell-based, influenza A virus
IAV NS1 protein = type: cell-based, influenza A virus
A549 cells = conditions: antiviral concentrations, 24 h
[1] = test system: Ebola virus Makona strain (EBOV); assay: microbe, parasite or virus in culture; type: cell-based; conditions: Zaire ebolavirus, Huh-7, 48 h, read-out: IC50 against EBOV
Influenza virus = assay: organism not typed; type: cell-based, influenza A virus
Huh7 cells = conditions: antiviral concentrations, 24 h
MERS-CoV = assay: microbe, parasite or virus in culture; type: cell-based; conditions: Middle East respiratory syndrome-related coronavirus, Huh-7, 24 h, read-out: IC50 against MERS-CoV
[2] = test system: Marburg virus Angola strain (MARV); assay: organism not typed; type: cell-based; conditions: Huh-7, 48 h, read-out: IC50 against MARV

CN(C)CCN(Cc1cocn1)Cc1cccs1 [SILCS35]
Percentage Infection Relative to Appropriate DMSO Control with Avg Background Subtraction (SARS2; Exp 1 (SMW475), 1 uM): 90.30% and 94.24% and 95.59%
Percentage Infection Relative to Appropriate DMSO Control with Avg Background Subtraction (SARS2; Exp 1 (SMW475), 5 uM): 93.18% and 101.74% and 91.54%
Percentage Infection Relative to Appropriate DMSO Control with Avg Background Subtraction (SARS2; Exp 1 (SMW475), 10 uM): 105.47% and 116.87% and 111.43%
Percentage Infection Relative to Appropriate DMSO Control with Avg Background Subtraction (SARS2; Exp 1 (SMW475), 25 uM): 79.86% and 56.98% and 87.77%
Percentage Infection Relative to Appropriate DMSO Control with Avg Background Subtraction (SARS2; Exp 1 (SMW475), 50 uM): 83.26% and 106.28% and 78.51%
Percentage Infection Relative to Appropriate DMSO Control with Avg Background Subtraction (SARS2; Exp 2 (SMW477), 1 uM): 131.21% and 119.10% and 117.97%
Percentage Infection Relative to Appropriate DMSO Control with Avg Background Subtraction (SARS2; Exp 2 (SMW477), 5 uM): 138.25% and 128.36% and 147.80%
Percentage Infection Relative to Appropriate DMSO Control with Avg Background Subtraction (SARS2; Exp 2 (SMW477), 10 uM): 155.83% and 113.76% and 119.79%
Percentage Infection Relative to Appropriate DMSO Control with Avg Background Subtraction (SARS2; Exp 2 (SMW477), 25 uM): 125.42% and 107.58% and 104.40%
Percentage Infection Relative to Appropriate DMSO Control with Avg Background Subtraction (SARS2; Exp 2 (SMW477), 50 uM): 109.53% and 98.67% and 105.03%
Percentage Infection Relative to Appropriate DMSO Control with Avg Background Subtraction (SARS2; Exp 3 (SMW478), 1 uM): 105.76% and 80.57% and 90.16%
Percentage Infection Relative to Appropriate DMSO Control with Avg Background Subtraction (SARS2; Exp 3 (SMW478), 5 uM): 134.19% and 78.79% and 94.59%
Percentage Infection Relative to Appropriate DMSO Control with Avg Background Subtraction (SARS2; Exp 3 (SMW478), 10 uM): 151.59% and 95.94% and 77.50%
Percentage Infection Relative to Appropriate DMSO Control with Avg Background Subtraction (SARS2; Exp 3 (SMW478), 25 uM): 126.08% and 121.76% and 139.01%
Percentage Infection Relative to Appropriate DMSO Control with Avg Background Subtraction (SARS2; Exp 3 (SMW478), 50 uM): 140.10% and 158.92% and 157.74%
Percentage Inhibition Average 1 μM (SARS2): −2.77%
Screening data (Relative infection to DMSO controls) Average 1 μM (SARS2): 102.77
Percentage Inhibition Average 5 μM (SARS2): −12.05%
Screening data (Relative infection to DMSO controls) Average 5 μM (SARS2): 112.05
Percentage Inhibition Average 10 μM (SARS2): −16.46%
Screening data (Relative infection to DMSO controls) Average 10 μM (SARS2): 116.46
Percentage Inhibition Average 25 μM (SARS2): −5.43%
Screening data (Relative infection to DMSO controls) Average 25 μM (SARS2): 105.43
Percentage Inhibition Average 50 μM (SARS2): −15.34%
Screening data (Relative infection to DMSO controls) Average 50 μM (SARS2): 115.34
Average (relative infection to DMSO over the 5 tested concentrations) (SARS2): 110.41
Infection Data, Average, Mean (SARS2; n 9, 1 uM): 102.77%
Infection Data, Average, Mean (SARS2; n 9, 5 uM): 112.05%
Infection Data, Average, Mean (SARS2; n 9, 10 uM): 116.46%
Infection Data, Average, Mean (SARS2; n 9, 25 uM): 105.43%
Infection Data, Average, Mean (SARS2; n 9, 50 uM): 115.34%
Relative cell count to DMSO controls, Average 1 μM (cells (nuclei count)): 105.31
Relative cell count to DMSO controls, Average 5 μM (cells (nuclei count)): 100.64
Relative cell count to DMSO controls, Average 10 μM (cells (nuclei count)): 89.77
Relative cell count to DMSO controls, Average 25 μM (cells (nuclei count)): 93.31
Relative cell count to DMSO controls, Average 50 μM (cells (nuclei count)): 60.5
Toxicity Data, Average, Mean (cells (nuclei count); n 9, 1 uM): 105.31%
Toxicity Data, Average, Mean (cells (nuclei count); n 9, 5 uM): 100.64%
Toxicity Data, Average, Mean (cells (nuclei count); n 9, 10 uM): 89.77%
Toxicity Data, Average, Mean (cells (nuclei count); n 9, 25 uM): 93.31%
Toxicity Data, Average, Mean (cells (nuclei count); n 9, 50 uM): 60.50%
Relative cell count to DMSO controls, Average (for correlation analysis) (cells (nuclei count)): 89.91
direct binding to WDR61 by SPR (WDR61): binding directly to WDR61

COc1ccc(CNCCc2ccccc2F)c(OCC(O)CN2CCN(C)CC2)c1 (stereo not shown) [UMB18, 1-[2-({[2-(2-fluorophenyl)ethyl]amino}methyl)-5-methoxyphenoxy]-3-(4-methyl-1-piperazinyl)-2-propanol]
IAV NS1 mRNA (IAV NS1 mRNA): marked reduction in mRNA
NS1 protein by western blot (IAV NS1 protein): lack of NS1 protein
toxicity by CellTiter-Glo assay (A549 cells): minimal toxicity
IC50 [1]: ~5 µM
10 μM treatment, Average (Influenza virus; 10 μM treatment, average of replicates): 11250 and 1250 and 2000 and 18000
10 μM treatment (Influenza virus; 10 μM treatment, replicate 2): 12000 and 1000 and 35000
10 μM treatment (Influenza virus; 10 μM treatment, replicate 3): 1000 and 2000
10 μM treatment (Influenza virus; 10 μM treatment, replicate 4): 5000 and 1000
50 μM treatment Average (Influenza virus; 50 μM compound, average of replicates): 1000 and 333.3 and 0 (2×)
50 μM treatment (Influenza virus; 50 μM compound, replicate 1, DMSO (0.5%) control run per batch): 0
50 μM treatment (Influenza virus; 50 μM compound, replicate 2): 3000 and 0 (2×)
50 μM treatment (third value column) (Influenza virus; 50 μM compound, replicate 3): 0 and 1000
50 μM treatment (fourth value column) (Influenza virus; 50 μM compound, replicate 4): 1000
time of addition: inhibition of IAV when drug added 2 h after infection (Influenza virus; +2 h versus -2 h and 0 h): marked reduction in the level of inhibition
IC50 (Influenza virus; A549, 24 h, read-out: IC50 against IAV): ~5 µM
antiviral activity against IAV infection (Influenza virus; screening, A549 cells): showed antiviral activity against influenza
toxicity by CellTiter-Glo assay (Huh7 cells): minimal toxicity
IC50 (MERS-CoV): ~5 µM
IC50 [2]: ~16 µM

CN1CCN(CC(O)COc2c(CNCCc3ccccc3F)cccc2C2CCCCC2)CC1 (stereo not shown) [SILCS4]
Percentage Inhibition Average 1 μM (SARS2): 17.51%
Screening data (Relative infection to DMSO controls) Average 1 μM (SARS2): 82.49
Percentage Inhibition Average 5 μM (SARS2): 59.94%
Screening data (Relative infection to DMSO controls) Average 5 μM (SARS2): 40.06
Percentage Inhibition Average 10 μM (SARS2): 86.21%
Screening data (Relative infection to DMSO controls) Average 10 μM (SARS2): 13.79
Percentage Inhibition Average 25 μM (SARS2): 81.29%
Screening data (Relative infection to DMSO controls) Average 25 μM (SARS2): 18.71
Percentage Inhibition Average 50 μM (SARS2): 90.83%
Screening data (Relative infection to DMSO controls) Average 50 μM (SARS2): 9.17
Average (relative infection to DMSO over the 5 tested concentrations) (SARS2): 32.84
Relative cell count to DMSO controls, Average 1 μM (cells (nuclei count)): 116.22
Relative cell count to DMSO controls, Average 5 μM (cells (nuclei count)): 123.91
Relative cell count to DMSO controls, Average 10 μM (cells (nuclei count)): 122.04
Relative cell count to DMSO controls, Average 25 μM (cells (nuclei count)): 3.91
Relative cell count to DMSO controls, Average 50 μM (cells (nuclei count)): 2.18
Toxicity Data, Average, Mean (relative to DMSO control) (cells (nuclei count); Average of Exp 1-3, 1 uM): 116.22%
Toxicity Data, Average, Mean (relative to DMSO control) (cells (nuclei count); Average of Exp 1-3, 5 uM): 123.91%
Toxicity Data, Average, Mean (relative to DMSO control) (cells (nuclei count); Average of Exp 1-3, 10 uM): 122.04%
Toxicity Data, Average, Mean (relative to DMSO control) (cells (nuclei count); Average of Exp 1-3, 25 uM): 3.91%
Toxicity Data, Average, Mean (relative to DMSO control) (cells (nuclei count); Average of Exp 1-3, 50 uM): 2.18%
Relative cell count to DMSO controls, Average (for correlation analysis) (cells (nuclei count)): 73.65
direct binding to WDR61 by SPR (WDR61): binding directly to WDR61

From patent publication US20240132484A1, “BROAD SPECTRUM ANTIVIRAL COMPOUNDS TARGETING THE SKI COMPLEX” (priority 2020, published 2024)
